Data published in the supplement of paper PMC10307832.

Columns and labels:
Assay in all cases: relative viability (nuclei count vs DMSO), 5 days (fraction); higher = more cells survive
[1] = test system: ABC-1
Method in brief: (§1)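 The day after seeding in 1536-well plates, lung cancer cell lines were treated by pin tool with a single drug, or with a fixed anchor-drug dose together with five library-drug doses (not always all listed) in √10 steps. After 5 days, a combined fix-and-stain solution (final 0.05% Triton X-100, 1% formaldehyde, 1 ug/ml Hoechst) was added. Nuclei counted on 4× images gave relative viability as treated counts over vehicle counts, reported as the median of duplicate plates.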

[2] = test system: COR-L23
Method in brief: as §1

[3] = test system: ChaGo-K-1
Method in brief: as §1

[4] = test system: EMC-BAC-2
Method in brief: as §1

[5] = test system: HARA
Method in brief: as §1

[6] = test system: HCC-15
Method in brief: as §1

[7] = test system: HCC-366
Method in brief: as §1

[8] = test system: HCC-78
Method in brief: as §1

[9] = test system: HOP-62
Method in brief: as §1

[10] = test system: LC-2-ad
Method in brief: as §1

[11] = test system: NCI-H1395
Method in brief: as §1

[12] = test system: NCI-H1793
Method in brief: as §1

[13] = test system: NCI-H1944
Method in brief: as §1

[14] = test system: NCI-H1993
Method in brief: as §1

[15] = test system: NCI-H2023
Method in brief: as §1

[16] = test system: NCI-H2126
Method in brief: as §1

[17] = test system: NCI-H2228
Method in brief: as §1

[18] = test system: NCI-H23
Method in brief: as §1

[19] = test system: NCI-H2405
Method in brief: as §1

[20] = test system: NCI-H358
Method in brief: as §1

[21] = test system: NCI-H838
Method in brief: as §1

[22] = test system: SK-LU-1
Method in brief: as §1

Cc1sc2c(c1C)C(c1ccc(Cl)cc1)=N[C@@H](CC(=O)OC(C)(C)C)c1nnc(C)n1-2 [JQ1] + CC(=O)c1c(C)c2cnc(Nc3ccc(N4CCNCC4)cn3)nc2n(C2CCCC2)c1=O [Palbociclib] (partner 0.5 µM)
relative viability ([1]; first compound 0.04 µM): 0.701 | relative viability ([1]; first compound 0.1265 µM): 0.479 | relative viability ([1]; first compound 0.4 µM): 0.44 | relative viability ([1]; first compound 1.265 µM): 0.451 | relative viability ([1]; first compound 4 µM): 0.334 | relative viability ([2]; first compound 0.04 µM): 0.336 | relative viability ([2]; first compound 0.1265 µM): 0.193 | relative viability ([2]; first compound 0.4 µM): 0.25 | relative viability ([2]; first compound 1.265 µM): 0.165 | relative viability ([2]; first compound 4 µM): 0.162 | relative viability ([3]; first compound 0.04 µM): 0.942 | relative viability ([3]; first compound 0.1265 µM): 0.909 | relative viability ([3]; first compound 0.4 µM): 0.952 | relative viability ([3]; first compound 1.265 µM): 0.674 | relative viability ([3]; first compound 4 µM): 0.525 | relative viability ([4]; first compound 0.04 µM): 0.496 | relative viability ([4]; first compound 0.1265 µM): 0.441 | relative viability ([4]; first compound 0.4 µM): 0.421 | relative viability ([4]; first compound 1.265 µM): 0.332 | relative viability ([4]; first compound 4 µM): 0.315 | relative viability ([5]; first compound 0.04 µM): 0.224 | relative viability ([5]; first compound 0.1265 µM): 0.193 | relative viability ([5]; first compound 0.4 µM): 0.228 | relative viability ([5]; first compound 1.265 µM): 0.229 | relative viability ([5]; first compound 4 µM): 0.189 | relative viability ([6]; first compound 0.04 µM): 0.648 | relative viability ([6]; first compound 0.1265 µM): 0.585 | relative viability ([6]; first compound 0.4 µM): 0.64 | relative viability ([6]; first compound 1.265 µM): 0.561 | relative viability ([6]; first compound 4 µM): 0.395 | relative viability ([7]; first compound 0.04 µM): 0.415 | relative viability ([7]; first compound 0.4 µM): 0.202 | relative viability ([7]; first compound 1.265 µM): 0.137 | relative viability ([7]; first compound 4 µM): 0.0766 | relative viability ([8]; first compound 0.04 µM): 0.489 | relative viability ([8]; first compound 0.1265 µM): 0.523 | relative viability ([8]; first compound 0.4 µM): 0.511 | relative viability ([8]; first compound 1.265 µM): 0.469 | relative viability ([8]; first compound 4 µM): 0.513 | relative viability ([9]; first compound 0.04 µM): 0.424 | relative viability ([9]; first compound 0.1265 µM): 0.323 | relative viability ([9]; first compound 0.4 µM): 0.152 | relative viability ([9]; first compound 1.265 µM): 0.106 | relative viability ([9]; first compound 4 µM): 0.0968 | relative viability ([10]; first compound 0.04 µM): 0.514 | relative viability ([10]; first compound 0.1265 µM): 0.433 | relative viability ([10]; first compound 0.4 µM): 0.342 | relative viability ([10]; first compound 1.265 µM): 0.279 | relative viability ([10]; first compound 4 µM): 0.281 | relative viability ([11]; first compound 0.04 µM): 0.591 | relative viability ([11]; first compound 0.1265 µM): 0.556 | relative viability ([11]; first compound 0.4 µM): 0.602 | relative viability ([11]; first compound 1.265 µM): 0.443 | relative viability ([11]; first compound 4 µM): 0.395 | relative viability ([12]; first compound 0.04 µM): 0.331 | relative viability ([12]; first compound 0.1265 µM): 0.307 | relative viability ([12]; first compound 0.4 µM): 0.274 | relative viability ([12]; first compound 1.265 µM): 0.335 | relative viability ([12]; first compound 4 µM): 0.334 | relative viability ([13]; first compound 0.04 µM): 0.327 | relative viability ([13]; first compound 0.1265 µM): 0.308 | relative viability ([13]; first compound 0.4 µM): 0.232 | relative viability ([13]; first compound 1.265 µM): 0.217 | relative viability ([13]; first compound 4 µM): 0.179 | relative viability ([14]; first compound 0.04 µM): 0.772 | relative viability ([14]; first compound 0.1265 µM): 0.734 | relative viability ([14]; first compound 0.4 µM): 0.613 | relative viability ([14]; first compound 1.265 µM): 0.613 | relative viability ([14]; first compound 4 µM): 0.714 | relative viability ([15]; first compound 0.04 µM): 0.338 | relative viability ([15]; first compound 0.1265 µM): 0.281 | relative viability ([15]; first compound 0.4 µM): 0.225 | relative viability ([15]; first compound 1.265 µM): 0.135 | relative viability ([15]; first compound 4 µM): 0.105 | relative viability ([16]; first compound 0.04 µM): 0.345 | relative viability ([16]; first compound 0.1265 µM): 0.401 | relative viability ([16]; first compound 0.4 µM): 0.368 | relative viability ([16]; first compound 1.265 µM): 0.348 | relative viability ([16]; first compound 4 µM): 0.37 | relative viability ([17]; first compound 0.04 µM): 0.657 | relative viability ([17]; first compound 0.1265 µM): 0.704 | relative viability ([17]; first compound 0.4 µM): 0.641 | relative viability ([17]; first compound 1.265 µM): 0.293 | relative viability ([17]; first compound 4 µM): 0.379 | relative viability ([18]; first compound 0.04 µM): 0.597 | relative viability ([18]; first compound 0.1265 µM): 0.48 | relative viability ([18]; first compound 0.4 µM): 0.275 | relative viability ([18]; first compound 1.265 µM): 0.26 | relative viability ([18]; first compound 4 µM): 0.215 | relative viability ([19]; first compound 0.04 µM): 0.571 | relative viability ([19]; first compound 0.4 µM): 0.522 | relative viability ([19]; first compound 1.265 µM): 0.471 | relative viability ([19]; first compound 4 µM): 0.311 | relative viability ([20]; first compound 0.04 µM): 0.168 | relative viability ([20]; first compound 0.1265 µM): 0.163 | relative viability ([20]; first compound 0.4 µM): 0.153 | relative viability ([20]; first compound 1.265 µM): 0.145 | relative viability ([20]; first compound 4 µM): 0.155 | relative viability ([21]; first compound 0.04 µM): 0.205 | relative viability ([21]; first compound 0.1265 µM): 0.194 | relative viability ([21]; first compound 0.4 µM): 0.167 | relative viability ([21]; first compound 1.265 µM): 0.164 | relative viability ([21]; first compound 4 µM): 0.162 | relative viability ([22]; first compound 0.04 µM): 0.405 | relative viability ([22]; first compound 0.1265 µM): 0.359 | relative viability ([22]; first compound 0.4 µM): 0.35 | relative viability ([22]; first compound 1.265 µM): 0.282 | relative viability ([22]; first compound 4 µM): 0.239
